Test results reported in ChEMBL document CHEMBL1201862, “PubChem BioAssay data set” (2004).
The source made the active and inactive calls. Unless noted, no cut-off for these calls is given here.

What was measured:
Assay type in all cases: functional
[1] = target: Glycogen synthase kinase-3 beta (Homo sapiens, UniProt P49841); test: inhibition of human GSK3B activity – biochemical, microfluidics, dry powder samples, set 2, dose response (AID 623989)
[2] = target: Glycogen synthase kinase-3 alpha (Homo sapiens, UniProt P49840); test: GSK3A enzyme blockers, homolog specificity check – biochemical, microfluidics, dry powder samples, set 2, selectivity assay for GSK3beta inhibitor project, dose response (AID 623978)
[3] = target: Cyclin-dependent kinase 5/CDK5 activator 1 (Homo sapiens, UniProt Q00535); test: inhibitors of human CDK5 activity – biochemical, microfluidic mobility shift, dry powder, set 2, selectivity assay for GSK3beta inhibitor project, dose response (AID 623979)
Cyclin-dependent kinase 5/CDK5 activator 1, sequence (Q00535 whole entry): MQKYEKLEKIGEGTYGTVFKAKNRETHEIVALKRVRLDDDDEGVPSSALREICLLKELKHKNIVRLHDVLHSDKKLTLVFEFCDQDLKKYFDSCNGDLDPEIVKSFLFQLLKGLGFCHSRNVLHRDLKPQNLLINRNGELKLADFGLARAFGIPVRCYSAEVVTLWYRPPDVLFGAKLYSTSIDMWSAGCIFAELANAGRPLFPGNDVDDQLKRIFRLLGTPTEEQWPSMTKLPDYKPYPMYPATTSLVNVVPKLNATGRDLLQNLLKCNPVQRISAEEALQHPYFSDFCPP
Cyclin-dependent kinase 5/CDK5 activator 1, sequence (Q15078 whole entry, further chain): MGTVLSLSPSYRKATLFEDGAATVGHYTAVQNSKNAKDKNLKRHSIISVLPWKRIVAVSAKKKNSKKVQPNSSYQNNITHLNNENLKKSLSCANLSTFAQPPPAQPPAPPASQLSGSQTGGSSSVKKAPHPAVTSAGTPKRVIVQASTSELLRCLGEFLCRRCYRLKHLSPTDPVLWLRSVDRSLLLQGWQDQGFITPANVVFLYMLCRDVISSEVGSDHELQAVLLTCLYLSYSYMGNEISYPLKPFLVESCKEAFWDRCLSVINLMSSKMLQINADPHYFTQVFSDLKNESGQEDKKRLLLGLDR

Glycogen synthase kinase-3 beta, sequence (P49841 whole entry): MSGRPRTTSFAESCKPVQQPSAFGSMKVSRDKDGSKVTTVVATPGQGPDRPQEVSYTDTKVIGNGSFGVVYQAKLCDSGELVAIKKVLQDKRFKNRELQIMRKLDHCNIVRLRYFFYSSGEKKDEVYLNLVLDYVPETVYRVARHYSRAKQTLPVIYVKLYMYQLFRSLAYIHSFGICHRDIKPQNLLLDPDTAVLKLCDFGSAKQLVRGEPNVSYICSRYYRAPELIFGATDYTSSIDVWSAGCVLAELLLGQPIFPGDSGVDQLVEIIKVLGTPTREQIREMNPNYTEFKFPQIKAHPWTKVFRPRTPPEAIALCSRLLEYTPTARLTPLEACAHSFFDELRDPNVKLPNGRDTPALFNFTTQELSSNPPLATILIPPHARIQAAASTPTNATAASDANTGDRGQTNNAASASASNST
Glycogen synthase kinase-3 alpha, sequence (P49840 whole entry): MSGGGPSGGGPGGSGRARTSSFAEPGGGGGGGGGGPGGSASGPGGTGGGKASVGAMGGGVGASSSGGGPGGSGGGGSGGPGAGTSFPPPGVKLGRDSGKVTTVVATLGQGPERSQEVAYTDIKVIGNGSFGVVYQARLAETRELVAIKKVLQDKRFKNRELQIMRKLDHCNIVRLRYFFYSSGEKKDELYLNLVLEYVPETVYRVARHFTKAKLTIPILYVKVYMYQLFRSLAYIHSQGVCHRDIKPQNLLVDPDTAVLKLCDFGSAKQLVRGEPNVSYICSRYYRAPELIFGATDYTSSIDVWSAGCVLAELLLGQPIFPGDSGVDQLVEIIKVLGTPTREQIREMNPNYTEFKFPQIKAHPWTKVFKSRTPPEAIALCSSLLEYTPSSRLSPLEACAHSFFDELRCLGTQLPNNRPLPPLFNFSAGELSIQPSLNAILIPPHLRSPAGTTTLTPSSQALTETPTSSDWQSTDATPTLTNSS

AC50 [1]: 107 nM (active) | AC50 [2]: 361 nM (active) | AC50 [3]: 38 nM (active)
Structure (SMILES): Cc1cccc(C(=O)N[C@H]2C[C@@H](n3cnc(NC(=O)Cc4cccc5ccccc45)c3)C2)n1
